Reference: PubChem BioAssay AID2060899 (Molecular Pharmacology Branch, DTP, NCI, 2025)

Test system: 565726-208-R1-J5-PDC complex spheroids, growth inhibition
Assay: Anticancer human tumor 565726-208-R1-J5-PDC patient-derived pancreatic adenocarcinoma cell line growth inhibition [RAS]
Conditions: for viability, T/C: stronger effect = lower value
How it was run: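 Tumour cells grown as complex spheroids with HUVEC endothelial cells and mesenchymal stem cells, treated with RAS pathway inhibitor combinations. Each agent spans half-log steps from near clinical Cmax, or 10 microM where Cmax is unknown.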

[1] = curve of first compound, second compound 0.0316 µM
[2] = curve of first compound, second compound 0.1 µM
[3] = curve of first compound, second compound 0.316 µM
[4] = curve of first compound, second compound 1 µM
[5] = curve of first compound, second compound 3.16 µM
[6] = curve of first compound, second compound 10 µM
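Further: spheroids exposed to compounds for seven days before readout.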
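Wherever viability, T/C is given: 100% = DMSO vehicle control viability.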

## CC1(C)CCC(Nc2ncc(C(F)(F)F)c(-c3c[nH]c4c(P(C)(C)=O)c(C#N)ccc34)n2)CN1 (stereo not given) + C#Cc1c(F)ccc2cc(O)cc(-c3ncc4c(N5CC6CCC(C5)N6)nc(OCC56CCCN5CC(F)C6)nc4c3F)c12
[1]
  IC50: 6.41 nM
[2]
  IC50: 6.67 nM
[3]
  IC50: 6.82 nM
[4]
  IC50: 7.75 nM
[5]
  IC50: 11.6 nM
[6]
  IC50: 2.98 nM
Second compound 0.0316 µM, first compound 0.000949 µM
  viability, T/C: 87.7%
Second compound 0.0316 µM, first compound 0.003 µM
  viability, T/C: 75.5%
Second compound 0.0316 µM, first compound 0.00949 µM
  viability, T/C: 36.9%
Second compound 0.0316 µM, first compound 0.03 µM
  viability, T/C: 33.9%
Second compound 0.0316 µM, first compound 0.0949 µM
  viability, T/C: 35.6%
Second compound 0.0316 µM, first compound 0.3 µM
  viability, T/C: 36.8%
Second compound 0.1 µM, first compound 0.000949 µM
  viability, T/C: 77.7%
Second compound 0.1 µM, first compound 0.003 µM
  viability, T/C: 64%
Second compound 0.1 µM, first compound 0.00949 µM
  viability, T/C: 44.5%
Second compound 0.1 µM, first compound 0.03 µM
  viability, T/C: 35.6%
Second compound 0.1 µM, first compound 0.0949 µM
  viability, T/C: 39.9%
Second compound 0.1 µM, first compound 0.3 µM
  viability, T/C: 40.6%
Second compound 0.316 µM, first compound 0.000949 µM
  viability, T/C: 75%
Second compound 0.316 µM, first compound 0.003 µM
  viability, T/C: 68.5%
Second compound 0.316 µM, first compound 0.00949 µM
  viability, T/C: 42.5%
Second compound 0.316 µM, first compound 0.03 µM
  viability, T/C: 42.2%
Second compound 0.316 µM, first compound 0.0949 µM
  viability, T/C: 43.7%
Second compound 0.316 µM, first compound 0.3 µM
  viability, T/C: 37.6%
Second compound 1 µM, first compound 0.000949 µM
  viability, T/C: 65.7%
Second compound 1 µM, first compound 0.003 µM
  viability, T/C: 64.6%
Second compound 1 µM, first compound 0.00949 µM
  viability, T/C: 46.1%
Second compound 1 µM, first compound 0.03 µM
  viability, T/C: 44.3%
Second compound 1 µM, first compound 0.0949 µM
  viability, T/C: 54%
Second compound 1 µM, first compound 0.3 µM
  viability, T/C: 43%
Second compound 3.16 µM, first compound 0.000949 µM
  viability, T/C: 60%
Second compound 3.16 µM, first compound 0.003 µM
  viability, T/C: 59.3%
Second compound 3.16 µM, first compound 0.00949 µM
  viability, T/C: 46.5%
Second compound 3.16 µM, first compound 0.03 µM
  viability, T/C: 45.3%
Second compound 3.16 µM, first compound 0.0949 µM
  viability, T/C: 50.4%
Second compound 3.16 µM, first compound 0.3 µM
  viability, T/C: 45.7%
Second compound 10 µM, first compound 0.000949 µM
  viability, T/C: 62.6%
Second compound 10 µM, first compound 0.003 µM
  viability, T/C: 50.2%
Second compound 10 µM, first compound 0.00949 µM
  viability, T/C: 47.2%
Second compound 10 µM, first compound 0.03 µM
  viability, T/C: 47.4%
Second compound 10 µM, first compound 0.0949 µM
  viability, T/C: 52.6%
Second compound 10 µM, first compound 0.3 µM
  viability, T/C: 46.5%

## NC1c2ccccc2OC12CCN(c1cnc3c(N4CCCc5ncccc54)n[nH]c3n1)CC2 (stereo not given) + C#Cc1c(F)ccc2cc(O)cc(-c3ncc4c(N5CC6CCC(C5)N6)nc(OCC56CCCN5CC(F)C6)nc4c3F)c12
[1]
  IC50: > 10000 nM
[2]
  IC50: > 10000 nM
[3]
  IC50: > 10000 nM
[4]
  IC50: 838 nM
[5]
  IC50: 283 nM
[6]
  IC50: 88.2 nM
Second compound 0.0316 µM, first compound 0.0316 µM
  viability, T/C: 85.3%
Second compound 0.0316 µM, first compound 0.1 µM
  viability, T/C: 107%
Second compound 0.0316 µM, first compound 0.316 µM
  viability, T/C: 70.4%
Second compound 0.0316 µM, first compound 1 µM
  viability, T/C: 58.8%
Second compound 0.0316 µM, first compound 3.16 µM
  viability, T/C: 67.3%
Second compound 0.0316 µM, first compound 10 µM
  viability, T/C: 73.1%
Second compound 0.1 µM, first compound 0.0316 µM
  viability, T/C: 91.6%
Second compound 0.1 µM, first compound 0.1 µM
  viability, T/C: 101%
Second compound 0.1 µM, first compound 0.316 µM
  viability, T/C: 74.4%
Second compound 0.1 µM, first compound 1 µM
  viability, T/C: 58.1%
Second compound 0.1 µM, first compound 3.16 µM
  viability, T/C: 64.7%
Second compound 0.1 µM, first compound 10 µM
  viability, T/C: 78.4%
Second compound 0.316 µM, first compound 0.0316 µM
  viability, T/C: 104%
Second compound 0.316 µM, first compound 0.1 µM
  viability, T/C: 105%
Second compound 0.316 µM, first compound 0.316 µM
  viability, T/C: 62%
Second compound 0.316 µM, first compound 1 µM
  viability, T/C: 51.2%
Second compound 0.316 µM, first compound 3.16 µM
  viability, T/C: 56.2%
Second compound 0.316 µM, first compound 10 µM
  viability, T/C: 57.4%
Second compound 1 µM, first compound 0.0316 µM
  viability, T/C: 97.9%
Second compound 1 µM, first compound 0.1 µM
  viability, T/C: 88.2%
Second compound 1 µM, first compound 0.316 µM
  viability, T/C: 53.3%
Second compound 1 µM, first compound 1 µM
  viability, T/C: 46.4%
Second compound 1 µM, first compound 3.16 µM
  viability, T/C: 50.3%
Second compound 1 µM, first compound 10 µM
  viability, T/C: 51.3%
Second compound 3.16 µM, first compound 0.0316 µM
  viability, T/C: 82.6%
Second compound 3.16 µM, first compound 0.1 µM
  viability, T/C: 75.3%
Second compound 3.16 µM, first compound 0.316 µM
  viability, T/C: 47.5%
Second compound 3.16 µM, first compound 1 µM
  viability, T/C: 36.4%
Second compound 3.16 µM, first compound 3.16 µM
  viability, T/C: 32.6%
Second compound 3.16 µM, first compound 10 µM
  viability, T/C: 40.4%
Second compound 10 µM, first compound 0.0316 µM
  viability, T/C: 63%
Second compound 10 µM, first compound 0.1 µM
  viability, T/C: 48.4%
Second compound 10 µM, first compound 0.316 µM
  viability, T/C: 29.6%
Second compound 10 µM, first compound 1 µM
  viability, T/C: 28.9%
Second compound 10 µM, first compound 3.16 µM
  viability, T/C: 28%
Second compound 10 µM, first compound 10 µM
  viability, T/C: 25.8%

## Nc1ccn(C2OC(CO)C(O)C2(F)F)c(=O)n1 (stereo not given) + CCn1c(-c2cc(N3CCN(C)CC3)cnc2C(C)OC)c2c3cc(ccc31)-c1csc(n1)CC(NC(=O)C1CC1C)C(=O)N1CCCC(N1)C(=O)OCC(C)(C)C2
Curve of first compound, second compound 0.000949 µM
  IC50: 21.9 nM
Curve of first compound, second compound 0.003 µM
  IC50: 7.2 nM
Curve of first compound, second compound 0.00949 µM
  IC50: < 3.16 nM
Curve of first compound, second compound 0.03 µM
  IC50: < 3.16 nM
Curve of first compound, second compound 0.0949 µM
  IC50: < 3.16 nM
Curve of first compound, second compound 0.3 µM
  IC50: < 3.16 nM
Second compound 0.000949 µM, first compound 0.00316 µM
  viability, T/C: 63.3%
Second compound 0.000949 µM, first compound 0.01 µM
  viability, T/C: 54.7%
Second compound 0.000949 µM, first compound 0.0316 µM
  viability, T/C: 49.9%
Second compound 0.000949 µM, first compound 0.1 µM
  viability, T/C: 34.4%
Second compound 0.000949 µM, first compound 0.316 µM
  viability, T/C: 35%
Second compound 0.000949 µM, first compound 1 µM
  viability, T/C: 27.8%
Second compound 0.003 µM, first compound 0.00316 µM
  viability, T/C: 56.7%
Second compound 0.003 µM, first compound 0.01 µM
  viability, T/C: 46.3%
Second compound 0.003 µM, first compound 0.0316 µM
  viability, T/C: 40.4%
Second compound 0.003 µM, first compound 0.1 µM
  viability, T/C: 33.6%
Second compound 0.003 µM, first compound 0.316 µM
  viability, T/C: 33.1%
Second compound 0.003 µM, first compound 1 µM
  viability, T/C: 24.3%
Second compound 0.00949 µM, first compound 0.00316 µM
  viability, T/C: 38.8%
Second compound 0.00949 µM, first compound 0.01 µM
  viability, T/C: 42.1%
Second compound 0.00949 µM, first compound 0.0316 µM
  viability, T/C: 34.2%
Second compound 0.00949 µM, first compound 0.1 µM
  viability, T/C: 29.1%
Second compound 0.00949 µM, first compound 0.316 µM
  viability, T/C: 28.3%
Second compound 0.00949 µM, first compound 1 µM
  viability, T/C: 23.7%
Second compound 0.03 µM, first compound 0.00316 µM
  viability, T/C: 28.9%
Second compound 0.03 µM, first compound 0.01 µM
  viability, T/C: 31.7%
Second compound 0.03 µM, first compound 0.0316 µM
  viability, T/C: 24.4%
Second compound 0.03 µM, first compound 0.1 µM
  viability, T/C: 22.1%
Second compound 0.03 µM, first compound 0.316 µM
  viability, T/C: 24.1%
Second compound 0.03 µM, first compound 1 µM
  viability, T/C: 21.7%
Second compound 0.0949 µM, first compound 0.00316 µM
  viability, T/C: 25.4%
Second compound 0.0949 µM, first compound 0.01 µM
  viability, T/C: 26.9%
Second compound 0.0949 µM, first compound 0.0316 µM
  viability, T/C: 23.1%
Second compound 0.0949 µM, first compound 0.1 µM
  viability, T/C: 21.1%
Second compound 0.0949 µM, first compound 0.316 µM
  viability, T/C: 19.1%
Second compound 0.0949 µM, first compound 1 µM
  viability, T/C: 18.9%
Second compound 0.3 µM, first compound 0.00316 µM
  viability, T/C: 22.3%
Second compound 0.3 µM, first compound 0.01 µM
  viability, T/C: 25.2%
Second compound 0.3 µM, first compound 0.0316 µM
  viability, T/C: 23.3%
Second compound 0.3 µM, first compound 0.1 µM
  viability, T/C: 20.9%
Second compound 0.3 µM, first compound 0.316 µM
  viability, T/C: 22.2%
Second compound 0.3 µM, first compound 1 µM
  viability, T/C: 19%

## Cc1nc(N2CCC3(CC2)COC(C)C3N)c(CO)nc1Sc1ccnc(N)c1Cl (stereo not given)
Compound 0.0316 µM
  viability, T/C: 106% [middle of 4 runs]
Compound 0.316 µM
  viability, T/C: 85.7% [middle of 4 runs]
Compound 1 µM
  viability, T/C: 81.1% [middle of 4 runs]
Curve of compound
  IC50: > 10000 nM
